Source: US10239878B2, “Macrocyclic ligands with pendant chelating moieties and complexes thereof” (LUMIPHORE, INC., priority 2016, dated 2019)

Tests used:
Assay type in all cases: physicochemical
[1] = 250 mM DTPA competition experiments (kinetic stability of Eu complexes); details: 33⋅Eu versus 16⋅Eu, 43⋅Eu versus 40⋅Eu
Text: From these experiments, it is clear that 43⋅Eu is remarkably stable to a wide range of competitive metal ions and chelators. The competitor concentrations mentioned above are a good way to assess the kinetic stability of the complex in various assay conditions. DTPA is an exceptionally good ligand for lanthanide ions, and thus it is not typically used in practical assays. However, DTPA competition offers an excellent way to benchmark the kinetic stability of the complexes reported here. […] In order to compare the kinetic stability of the complexes reported here, a 750 mM stock solution (25 mL) of DTPA was prepared by dissolving DTPA (7.375 g, 18.75 mmol) into water (20 mL) containing potassium hydroxide (5.26 g, 93.75 mmol). The pH of the DTPA solution was adjusted to pH=7.6 by addition of concentrated hydrochloric acid, and then the solution was diluted to a final volume of 25 mL to give a 750 mM DTPA stock solution at pH=7.6. HPLC purified europium complexes of 16, 29, 33, 40, and 43 were separately diluted to 11 μM in TBS buffer, pH=7.6. For each DTPA competition experiment, 1 mL of the 750 mM DTPA solution was added to 2 mL of the 11 μM europium complex solution. The luminescence at 612 nm (365 nm excitation) was monitored for these five separate solutions containing 250 mM DTPA and 7.1 μM of each europium complex as a function of time.

[2] = Photophysical characterization of Eu complexes (UV-vis absorption, quantum yield, lifetime)
Protocol: The europium complexes of ligands 16, 29, 33, 40, and 43 were prepared by separately dissolving each ligand (2 mg) into methanol (200 μL). Excess europium chloride hexahydrate (˜5 equivalents) was dissolved in methanol (200 μL) and the full volume was added to each of the ligand solutions. The solvent was removed, and the residue was dissolved into DMF (50 μL). The europium complexes were then purified by semi-prep HPLC on an Agilent 1260 Infinity instrument using an Eclipse XDB-C18 column (5 μm, 9.4×250 mm). The mobile phase was 10 to 30% acetonitrile in water containing 0.1% trifluoroacetic acid. The volatiles were removed from the HPLC eluents under vacuum, and the residues were separately dissolved into methanol (500 μL) to give methanolic stock solutions of each europium complex with greater than 98% purity. A few drops of these methanolic solutions were evaporated to dryness, and then the residue was dissolved into TBS buffer at a concentration of ca. 3 μM to make aqueous stock solutions (20 mL) with an absorbance of 0.05 (1 cm path length) at 365 nm. Five dilutions (1/6, 2/6, 3/6, 4/6, and 5/6) were made from these aqueous stock solutions to yield six samples with evenly spaced concentrations (3 mL volume each). Quinine sulfate dissolved in 0.05 M sulfuric acid was similarly diluted to a final absorbance of 0.05 at 365 nm, and this solution was similarly (1/6, 2/6, 3/6, 4/6, and 5/6) diluted to afford six quinine sulfate reference samples of evenly spaced concentration. Quinine sulfate in 0.05 M sulfuric acid was used as the quantum yield standard (Φ=0.508). By measuring the absorbance and luminescence of these dilute solutions, the quantum yields of the new Eu complexes were determined. A 5 cm path-length quartz cell was used to measure the absorbance of these dilute solutions in order to improve the UV-vis signal-to-noise. Steady state photoluminescence measurements were collected in a 1 cm fluorescence cuvette at 365 nm excitation wavelength, 1 nm resolution, 10 nm excitation slit width, 1 nm emission slit width, and 0.2 sec integration time on an instrument that has been described elsewhere (D'Aléo, A.; Moore, E. G.; Szigethy, G.; Xu, J.; Raymond, K. N. Inorg. Chem. 2009, 48, 9316.). Absorption spectra were measured at 1 nm resolution, and the absorbance of each sample was taken as the average absorbance measured from 360-370 nm to reflect the 10 nm excitation slit width used for luminescence measurements. The data derived from these experiments, and from the titration experiments in example 11 are tabulated below.

[3] = Europium titration experiments for determining extinction coefficients
Protocol: In order to determine accurate extinction coefficients for 16 and 16⋅Eu, titration experiments using europium chloride as the titrant were performed. Europium chloride hexahydrate (13.22 mg, 0.03608 mmol) was dissolved into 5 mM citrate buffer (pH=4) using a 100 mL volumetric flask to give a 0.3608 mM europium chloride solution, which was then titrated into a 0.5 mL solution of 16 in TBS buffer (Tris-buffered saline, 50 mM Tris, 150 mM NaCl, pH=7.6) using 5 μL aliquots. The UV-vis spectra were adjusted for the increase in solvent volume due to each injection. The results of the UV-vis titration are plotted in FIG. 3.
The volume of europium chloride corresponds to 16.70 nmol of europium, meaning the starting concentration of ligand 16 was 33.40 μM. […] These absorbance and concentration values yield extinction coefficients of 13,600 M^−1 cm^−1 and 14,300 M^−1 cm^−1 for the ligand 16 and the complex 16⋅Eu respectively.
In order to determine accurate extinction coefficients for 43 and 43⋅Eu, titration experiments using europium chloride as the titrant were performed. Europium chloride hexahydrate (47.58 mg, 0.1299 mmol) was dissolved into 50 mM citrate buffer (pH=4) using a 10 mL volumetric flask to give a 12.99 mM europium chloride solution, which was then transferred to a 100 mL volumetric flask and diluted 1:10 with water. The resulting 1.299 mM europium chloride solution (in 5 mM citrate buffer) was then titrated into a 1 mL solution of 43 in TBS buffer using 5 μL aliquots. The UV-vis spectra were adjusted for the increase in solvent volume due to each injection. The results of the UV-vis titration are plotted in FIG. 4.
The volume of europium chloride corresponds to 47.46 nmol of europium, meaning the starting concentration of ligand 43 was 47.46 μM. […] These absorbance and concentration values yield extinction coefficients of 13,000 M^−1 cm^−1 and 12,800 M^−1 cm^−1 for the ligand and complex respectively.
Titration of ligand 43 was also performed by luminescence (FIG. 5), monitoring the europium signal at 612 nm upon photoexcitation of the solution at 340 nm. The ligand solution used for the UV-vis titration of 43 mentioned above was first diluted 1:10 in TBS buffer. Similarly, the 1.299 mM stock europium solution was separately diluted 1:10 with water. […] The 32.99 μL equivalence point gives extinction coefficients of 14,400 M^−1 cm^−1 at 383 nm and 14,200 M^−1 cm^−1 at 357 nm for 43 and 43⋅Eu respectively. Averaging the values from both UV-vis and luminescence titration experiments of 43 yields extinction coefficients of 13,700 M^−1 cm^−1 at 383 nm and 13,500 M^−1 cm^−1 at 357 nm for 43 and 43⋅Eu respectively.

- reduction in kinetic stability upon introduction of the spermine-based sidearm [1]: ~2 fold
- ε260/ε at λmax ([2]; TBS buffer, pH 7.6): 1.52
- ε280/ε at λmax ([2]; TBS buffer, pH 7.6): 1.20
- λmax ([2]; TBS buffer, pH 7.6): 358 nm
- Φtotal at 365 nm excitation ([2]; TBS buffer, quinine sulfate as quantum yield standard): 28.8%
- Lifetime ([2]; luminescence, HPLC purified Eu complexes): 734 μs
- extinction coefficient ([3]; UV-vis titration with europium chloride, TBS buffer pH 7.6, at lambda max): 12,800 M^−1 cm^−1
- lambda max ([3]; UV-vis titration, TBS buffer): 357 nm
- extinction coefficient, average of UV-vis and luminescence titration ([3]; at 383 nm (ligand) / 357 nm (complex)): 13,500 M^−1 cm^−1
- ε at λmax ([3]; by europium titration, TBS buffer pH 7.6): 13,500 M^−1cm^−1
- extinction coefficient ([3]; luminescence titration (612 nm signal, 340 nm photoexcitation), at 383 nm (ligand) / 357 nm (complex)): 14,200 M^−1 cm^−1
Compound: NCCOCCNC(=O)C1CCCN(C(=O)c2cccc(=O)n2[O-])CCCNC(=O)c2ccc(n([O-])c2=O)C(=O)NC2COCC2NC(=O)c2ccc(c(=O)n2[O-])C(=O)NCCCN1C(=O)c1cccc(=O)n1[O-].[Eu+3] (mixture of isomers) [43⋅Eu]
